Results: US10981893B2, “Therapeutic inhibitory compounds” (Attune Pharmaceuticals, Inc., priority 2015, dated 2021)

molecular target: human Plasma Kallikrein (Homo sapiens (Human), UniProt P03952); assay: In vitro enzyme inhibition of human plasma kallikrein (Pro-Phe-Arg-AMC cleavage); format: biochemical; conditions: PFR-AMC substrate, 37° C., read-out: hPK IC50
Protocol: The ability of the compounds disclosed herein to inhibit human plasma kallikrein activity was quantified according to the procedures below.
A 10 mM solution of the test compound was made in DMSO. This solution was serially diluted 1:5 in DMSO to yield 2000, 400, 80, 16, 3.2, 0.64, 0.128, 0.0256 and 0.00512 μM compound test solutions. A control tube containing only DMSO is included. 16 μL of each compound test solution was combined with 384 μL of assay buffer (50 mM Tris-HCl pH 7.5, 150 mM NaCl, 0.01% Triton X-100) to yield a “4× test compound buffer stock”.
Separately, a 40 nM solution of human Plasma Kallikrein (Abcam) and a 93.6 μM solution Pro-Phe-Arg-AMC (Bachem) were made using assay buffer. These solutions are hereby refereed to as 4×hPK and 2×PFR-AMC, respectively.
60 μL of each 4× test compound buffer stock was combined with 60 μL of 4× hPK to yield 120 μL of “2× test compound buffer stock/2×hPK”. 50 μL was removed from this mixture and placed into duplicate wells on a Microfluor 1 Black U-bottom microtiter plate (Thermo Scientific). This plate was incubated for 5 minutes at 37° C. To each well, 50 μL of pre-warmed 2×PFR-AMC was added to start the enzymatic reaction. Cleavage of PFR-AMC was monitored in a Biotek Synergy H4 reader set at 37° C. Readings are taken every 43 seconds for 1 hour. The highest mean velocity over 20 reads (˜15 minutes) is used to calculate the IC50. The IC50 is calculated using the Gen5 (Biotek Instruments).
The ability of the compounds in Table 1 to inhibit human plasma kallikrein activity was determined and the data is shown in Table 3.

Chain of human Plasma Kallikrein (P03952 391-638 limits assumed): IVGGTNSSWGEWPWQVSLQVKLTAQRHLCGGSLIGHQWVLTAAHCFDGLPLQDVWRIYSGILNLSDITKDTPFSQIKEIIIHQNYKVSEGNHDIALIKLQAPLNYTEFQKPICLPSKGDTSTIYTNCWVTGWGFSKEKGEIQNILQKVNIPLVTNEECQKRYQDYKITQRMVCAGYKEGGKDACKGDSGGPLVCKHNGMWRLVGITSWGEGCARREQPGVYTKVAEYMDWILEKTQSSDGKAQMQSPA
Chain of human Plasma Kallikrein (P03952 20-390 partner limits assumed): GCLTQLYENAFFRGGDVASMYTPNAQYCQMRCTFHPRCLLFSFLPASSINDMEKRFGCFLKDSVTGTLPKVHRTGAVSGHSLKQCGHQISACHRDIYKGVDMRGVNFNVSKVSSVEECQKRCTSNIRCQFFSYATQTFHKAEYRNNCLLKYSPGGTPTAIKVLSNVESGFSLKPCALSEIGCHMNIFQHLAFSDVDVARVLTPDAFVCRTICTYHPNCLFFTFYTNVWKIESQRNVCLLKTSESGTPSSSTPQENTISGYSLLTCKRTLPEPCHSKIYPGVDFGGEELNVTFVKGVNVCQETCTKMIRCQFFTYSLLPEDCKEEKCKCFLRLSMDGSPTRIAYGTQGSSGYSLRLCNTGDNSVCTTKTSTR

Structure (SMILES)	IC50 [nM]
CC(=O)N(Cc1ccn(Cc2cc(C(=O)NCc3cc4c(Cl)c[nH]c4cc3F)ccn2)n1)C1CC1 [Example 9, N-((3-chloro-6-fluoro-1H-indol-5-yl)methyl)-2-((3-((N-cyclopropylacetamido)methyl)-1H-pyrazol-1-yl)methyl)isonicotinamide]	> 10000
O=C(NCc1ccc(Cl)cc1)c1cncc(Cc2ccc(Cn3ccccc3=O)cc2)c1 [Example 15, N-(4-chlorobenzyl)-5-(4-((2-oxopyridin-1(2H)-yl)methyl)benzyl)nicotinamide]	1000 to 10000
O=C(NCc1n[nH]c2ccc(Cl)cc12)c1cncc(Cc2ccccc2C(F)(F)F)c1 [Example 1, N-((5-chloro-1H-indazol-3-yl)methyl)-5-(2-(trifluoromethyl)benzyl)nicotinamide]	1000 to 10000
O=C(NCc1n[nH]c2ccc(Cl)cc12)c1cncc(Cc2ccccc2)c1 [Example 5, 5-benzyl-N-((5-chloro-1H-indazol-3-yl)methyl)nicotinamide]	1000 to 10000
COc1ccc(CNC(=O)c2cncc(Cc3ccc(Cn4ccccc4=O)cc3)c2)cc1 [Example 16, N-(4-methoxybenzyl)-5-(4-((2-oxopyridin-1(2H)-yl)methyl)benzyl)nicotinamide]	1000 to 10000
N#Cc1ccc(Cc2cncc(C(=O)NCc3n[nH]c4ccc(Cl)cc34)c2)cc1 [Example 2, N-((5-chloro-1H-indazol-3-yl)methyl)-5-(4-cyanobenzyl)nicotinamide]	1000 to 10000
N#Cc1cnn(Cc2cncc(C(=O)NCc3cc4c(Cl)c[nH]c4cc3F)c2)c1 [Example 7, N-((3-chloro-6-fluoro-1H-indol-5-yl)methyl)-5-((4-cyano-1H-pyrazol-1-yl)methyl)nicotinamide]	1000 to 10000
O=C(NC(C(=O)O)c1n[nH]c2ccc(Cl)cc12)c1cncc(Cc2ccc(Cn3ccccc3=O)cc2)c1 (centres unmarked) [Example 12, 2-(5-chloro-1H-indazol-3-yl)-2-(5-(4-((2-oxopyridin-1(2H)-yl)methyl)benzyl)nicotinamido)acetic acid]	1000 to 10000
O=C(NCc1n[nH]c2ccc(Cl)cc12)c1cncc(Cc2ccc(C(F)(F)F)cc2)c1 [Example 3, N-((5-chloro-1H-indazol-3-yl)methyl)-5-(4-(trifluoromethyl)benzyl)nicotinamide]	1000 to 10000
NC(=O)c1ccc(CNC(=O)c2cncc(Cc3ccc(Cn4ccccc4=O)cc3)c2)cc1 [Example 14, N-(4-carbamoylbenzyl)-5-(4-((2-oxopyridin-1(2H)-yl)methyl)benzyl)nicotinamide]	1000 to 10000
Cc1ccc(Cc2cncc(C(=O)NCc3n[nH]c4ccc(Cl)cc34)c2)cc1 [Example 4, N-((5-chloro-1H-indazol-3-yl)methyl)-5-(4-methylbenzyl)nicotinamide]	1000 to 10000
O=C(NCc1ccc(Br)c(F)c1)c1ccnc(Cc2ccc(Cn3ccccc3=O)cc2)c1 [Example 18, N-(4-bromo-3-fluorobenzyl)-2-(4-((2-oxopyridin-1(2H)-yl)methyl)benzyl)isonicotinamide]	> 10000
NC(=O)C(NC(=O)c1cncc(Cc2ccc(Cn3ccccc3=O)cc2)c1)c1n[nH]c2ccc(Cl)cc12 (centres unmarked) [Example 11, N-(2-amino-1-(5-chloro-1H-indazol-3-yl)-2-oxoethyl)-5-(4-((2-oxopyridin-1(2H)-yl)methyl)benzyl)nicotinamide]	1000 to 10000
NC(=O)c1cnn(Cc2cncc(C(=O)NCc3cc4c(Cl)c[nH]c4cc3F)c2)c1 [Example 8, 5-((4-carbamoyl-1H-pyrazol-1-yl)methyl)-N-((3-chloro-6-fluoro-1H-indol-5-yl)methyl)nicotinamide]	> 10000
NC(=O)c1ccccc1Cc1cncc(C(=O)NCc2n[nH]c3ccc(Cl)cc23)c1 [Example 6, 5-(2-carbamoylbenzyl)-N-((5-chloro-1H-indazol-3-yl)methyl)nicotinamide]	1000 to 10000
O=C(NCc1cc2c(Cl)c[nH]c2cc1F)c1ccc(=O)n(CC23CC(Cn4ccccc4=O)(C2)C3)c1 [Example 17, N-((3-chloro-6-fluoro-1H-indol-5-yl)methyl)-6-oxo-1-((3-((2-oxopyridin-1(2H)-yl)methyl)bicyclo[1.1.1]pentan-1-yl)methyl)-1,6-dihydropyridine-3-carboxamide]	1000 to 10000

More lines, now with the values ahead:

IC50 [nM]	Structure (SMILES)
1000 to 10000	CS(=O)(=O)c1cc(Cc2cc(C(=O)NCc3ccc(N)nc3C(F)(F)F)ccn2)ccc1Cn1ccccc1=O [Example 26, N-((6-amino-2-(trifluoromethyl)pyridin-3-yl)methyl)-2-(3-(methylsulfonyl)-4-((2-oxopyridin-1(2H)-yl)methyl)benzyl)isonicotinamide]
≤ 100	Cc1cc(N)nc(C)c1CNC(=O)c1ccnc(Cc2ccc3ncc(Cl)cc3c2)n1 [Example 24, N-((6-amino-2,4-dimethylpyridin-3-yl)methyl)-2-((3-chloroquinolin-6-yl)methyl)pyrimidine-4-carboxamide]
≤ 100	CS(=O)(=O)c1cc(Cc2cc(C(=O)NCc3cnc4[nH]cc(Cl)c4c3)ccn2)ccc1Cn1ccccc1=O [Example 29]
> 10000	Cc1cc(C#N)ccc1CNC(=O)c1ccnc(Cc2ccc(Cn3ccccc3=O)cc2)c1 [Example 19, N-(4-cyano-2-methylbenzyl)-2-(4-((2-oxopyridin-1(2H)-yl)methyl)benzyl)isonicotinamide]
≤ 100	Cc1cc(N)nc(C)c1CNC(=O)c1cncc(Cc2ccc3ncc(Cl)cc3c2)c1 [Example 22, N-((6-amino-2,4-dimethylpyridin-3-yl)methyl)-5-((3-chloroquinolin-6-yl)methyl)nicotinamide]
100 to 1000	CS(=O)(=O)c1cc(Cc2cc(C(=O)NCc3ccc4c(N)noc4c3)ccn2)ccc1Cn1ccccc1=O [Example 20, N-((3-aminobenzo[d]isoxazol-6-yl)methyl)-2-(3-(methylsulfonyl)-4-((2-oxopyridin-1(2H)-yl)methyl)benzyl)isonicotinamide]
≤ 100	CS(=O)(=O)c1cc(Cc2cc(C(=O)NCc3n[nH]c4ccc(Cl)cc34)ccn2)ccc1Cn1ccccc1=O [Example 30, N-((5-chloro-1H-indazol-3-yl)methyl)-2-(3-(methylsulfonyl)-4-((2-oxopyridin-1(2H)-yl)methyl)benzyl)isonicotinamide]
100 to 1000	CS(=O)(=O)c1cc(Cc2cc(C(=O)NCc3cnc(N)cc3C(F)(F)F)ccn2)ccc1Cn1ccccc1=O [Example 27, N-((6-amino-4-(trifluoromethyl)pyridin-3-yl)methyl)-2-(3-(methylsulfonyl)-4-((2-oxopyridin-1(2H)-yl)methyl)benzyl)isonicotinamide]

molecular target: kallikrein in human plasma (Homo sapiens (Human), UniProt P03952); assay: In vitro cellular assay / contact assay: kallikrein activity in ellagic acid-activated human plasma (Z-FR-2-AMC substrate); format: biochemical; conditions: human plasma activated with ellagic acid, 37° C.
Protocol: The ability of the compounds disclosed herein to inhibit cellular kallikrein activity was quantified and the respective EC50 value was determined.
Plasma kallikrein inhibitor C1NH (Athens Research & Technology, Cat #16-16-031509); Ellagic acid (Sigma, E2250); Substrate Z—FR-2-AMC (GL Biochem, Cat #55352); Nunc™ 96-Well Polypropylene MicroWell™ Plates (Nunc, Cat #267342)
All dilutions were prepared in an assay buffer comprising 50 mM Tris-HCl pH 7.2, 150 mM NaCl, and 0.01% Triton X-100.
Four fold serial dilutions were prepared from a 107.53 μM plasma kallikrein inhibitor C1NH stock solution, to yield ten solutions with concentrations between 20 μM and […]. Similarly, four fold serial dilutions were prepared from 10 mM stock solutions of various test compounds, to yield ten solutions with concentrations between 4 mM and 0.015 μM. The ten solutions of the test compounds, prepared by serial dilution, were further diluted 50-fold in the assay buffer.
Human plasma is thawed on ice and centrifuged for 15 min at 4° C. to remove platelets. A 1 mM stock solution of ellagic acid is diluted to 8 μM and mixed with human plasma, after removing platelets, at a ratio of 1:0.8. The mixture of human plasma and ellagic acid was further diluted 32-fold in the assay buffer, to yield the final mixture for use in the inhibition assay.
A 22.5 μL volume of the final mixture of human plasma and ellagic acid was added to a 96-well microwell plate and the plate was incubated for 15 min at 37° C.
The test compounds at various concentrations, also prepared by serial dilutions as described above, are added to the test wells. The volume of test compound added to each test well was 12.5 μL, to yield final concentrations of 20 μM, 5 μM, 1.25 μM, 312.5 nM, 78.125 nM, 19.531 nM, 4.883 nM, 1.221 nM, 0.305 nM, and 0.076 nM. Each test compound concentration was tested in duplicates.
In addition to the inhibitor control and test wells, the 96 well assay plate includes positive control wells which contained the mixture of human plasma and ellagic acid without C1NH inhibitor or test compounds, and background wells which contained neither the mixture of human plasma and ellagic acid nor the test compounds. The total volume of liquid in positive control and background wells was brought up to 35 μL, using the assay buffer.
The assay plate containing C1NH inhibitors and test compounds mixed with human plasma and ellagic acid and appropriate controls was incubated at 37° C. for 5 min. A 10 mM stock solution of substrate Z—FR-2-AMC was diluted to 133.2 μM in the assay buffer, and 15 μL of the diluted substrate was added to each well, to yield a final substrate concentration of 40 μM in each well. […]
The enzyme reaction was quantified by immediate kinetic reading of the assay plate using excitation/emission wavelengths of 330 nm/440 nm respectively. Fluorescence intensity was recorded for 60 min, using a time interval of 43 sec.
The inhibition activity of the test compounds were evaluated using the IC50 values, calculated according to the dose-response curve of the test compounds, fitted using the “log(inhibitor)-response(variable slope)” equation in GraphPadPrism software (GraphPad Software, Inc.).
The percentage inhibition was calculated using the following equation:
[formula] where, Mean(BG) is the average value of the fluorescence intensity of the background wells and Mean(PC) is the average value of the fluorescence intensity of the positive control wells. […]

Chain of kallikrein in human plasma (P03952 391-638 limits assumed): as the sequence (P03952 391-638 limits assumed) above
Chain of kallikrein in human plasma (P03952 20-390 partner limits assumed): as the sequence (P03952 20-390 partner limits assumed) above

EC50 [nM]	Structure (SMILES)
≤ 100	CS(=O)(=O)c1cc(Cc2cc(C(=O)NCc3cnc4[nH]cc(Cl)c4c3)ccn2)ccc1Cn1ccccc1=O [Example 29]
≤ 100	Cc1cc(N)nc(C)c1CNC(=O)c1cncc(Cc2ccc3ncc(Cl)cc3c2)c1 [Example 22, N-((6-amino-2,4-dimethylpyridin-3-yl)methyl)-5-((3-chloroquinolin-6-yl)methyl)nicotinamide]
